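Assay format: 96-well plates, 48-hour exposure. TGI marks complete inhibition of growth.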
Key:
Assay in all cases: DTP human tumour cell line panel, 48 h
SF-539 CNS = test system: SF-539 CNS
MCF7 breast = test system: MCF7 breast
COLO 205 colon = test system: COLO 205 colon
OVCAR-8 ovarian = test system: OVCAR-8 ovarian
MDA-N = test system: MDA-N
HOP-62 NSCLC = test system: HOP-62 NSCLC
CAKI-1 renal = test system: CAKI-1 renal
EKVX NSCLC = test system: EKVX NSCLC
SK-OV-3 ovarian = test system: SK-OV-3 ovarian
SF-295 CNS = test system: SF-295 CNS
HS 578T breast = test system: HS 578T breast
MALME-3M melanoma = test system: MALME-3M melanoma
ACHN renal = test system: ACHN renal
MOLT-4 leukemia = test system: MOLT-4 leukemia
NCI-H226 lung = test system: NCI-H226 lung
OVCAR-5 ovarian = test system: OVCAR-5 ovarian
HCT-116 colon = test system: HCT-116 colon
BT-549 breast = test system: BT-549 breast
TK-10 renal = test system: TK-10 renal
NCI-H23 lung = test system: NCI-H23 lung
HCT-15 colon = test system: HCT-15 colon
A549 NSCLC = test system: A549 NSCLC
M14 melanoma = test system: M14 melanoma
UO-31 renal = test system: UO-31 renal
NCI-H460 lung = test system: NCI-H460 lung
HL-60(TB) leukemia = test system: HL-60(TB) leukemia
KM12 colon = test system: KM12 colon
NCI/ADR-RES ovarian = test system: NCI/ADR-RES ovarian
SK-MEL-28 melanoma = test system: SK-MEL-28 melanoma
A498 renal = test system: A498 renal
HOP-92 NSCLC = test system: HOP-92 NSCLC
SK-MEL-5 melanoma = test system: SK-MEL-5 melanoma
MDA-MB-231 breast = test system: MDA-MB-231 breast
SF-268 CNS = test system: SF-268 CNS
SK-MEL-2 melanoma = test system: SK-MEL-2 melanoma
SW-620 colon = test system: SW-620 colon
HCC-2998 colon = test system: HCC-2998 colon
MDA-MB-435 = test system: MDA-MB-435
HT29 colon = test system: HT29 colon
OVCAR-3 ovarian = test system: OVCAR-3 ovarian
CCRF-CEM leukemia = test system: CCRF-CEM leukemia
786-0 renal = test system: 786-0 renal
OVCAR-4 ovarian = test system: OVCAR-4 ovarian
UACC-257 melanoma = test system: UACC-257 melanoma
DU-145 prostate = test system: DU-145 prostate
RXF 393 renal = test system: RXF 393 renal
SNB-19 CNS = test system: SNB-19 CNS
K-562 leukemia = test system: K-562 leukemia
NCI-H522 lung = test system: NCI-H522 lung
T-47D breast = test system: T-47D breast
LOX IMVI melanoma = test system: LOX IMVI melanoma
SR leukemia = test system: SR leukemia
RPMI-8226 leukemia = test system: RPMI-8226 leukemia
PC-3 prostate = test system: PC-3 prostate
SN12C renal = test system: SN12C renal
UACC-62 melanoma = test system: UACC-62 melanoma
U251 CNS = test system: U251 CNS
SNB-75 CNS = test system: SNB-75 CNS
IGROV1 ovarian = test system: IGROV1 ovarian

## CC1=C[C@H]([C@H]2C=C(C)C(C(N)=O)=CN2Cc2c(Cl)cccc2Cl)N(Cc2c(Cl)cccc2Cl)C=C1C(N)=O
SF-539 CNS
  TGI: > 75 µM
MCF7 breast
  TGI: > 75 µM
COLO 205 colon
  TGI: > 75 µM
OVCAR-8 ovarian
  TGI: > 75 µM
MDA-N
  TGI: > 75 µM
HOP-62 NSCLC
  TGI: > 75 µM
CAKI-1 renal
  TGI: > 75 µM
EKVX NSCLC
  TGI: > 75 µM
SK-OV-3 ovarian
  TGI: > 75 µM
SF-295 CNS
  TGI: > 75 µM
HS 578T breast
  TGI: > 75 µM
MALME-3M melanoma
  TGI: > 75 µM
ACHN renal
  TGI: > 75 µM
MOLT-4 leukemia
  TGI: > 75 µM
NCI-H226 lung
  TGI: > 75 µM
OVCAR-5 ovarian
  TGI: > 75 µM
HCT-116 colon
  TGI: > 75 µM
BT-549 breast
  TGI: > 75 µM
TK-10 renal
  TGI: > 75 µM
NCI-H23 lung
  TGI: > 75 µM
HCT-15 colon
  TGI: > 75 µM
A549 NSCLC
  TGI: > 75 µM
M14 melanoma
  TGI: > 75 µM
UO-31 renal
  TGI: > 75 µM
NCI-H460 lung
  TGI: > 75 µM
HL-60(TB) leukemia
  TGI: > 75 µM
KM12 colon
  TGI: > 75 µM
NCI/ADR-RES ovarian
  TGI: > 75 µM
SK-MEL-28 melanoma
  TGI: > 75 µM
A498 renal
  TGI: > 75 µM
HOP-92 NSCLC
  TGI: 65.8 µM
SK-MEL-5 melanoma
  TGI: > 75 µM
MDA-MB-231 breast
  TGI: > 75 µM
SF-268 CNS
  TGI: > 75 µM
SK-MEL-2 melanoma
  TGI: > 75 µM
SW-620 colon
  TGI: > 75 µM
HCC-2998 colon
  TGI: > 75 µM
MDA-MB-435
  TGI: > 75 µM
HT29 colon
  TGI: > 75 µM
OVCAR-3 ovarian
  TGI: > 75 µM
CCRF-CEM leukemia
  TGI: > 75 µM
786-0 renal
  TGI: > 75 µM
OVCAR-4 ovarian
  TGI: > 75 µM
UACC-257 melanoma
  TGI: > 75 µM
DU-145 prostate
  TGI: > 75 µM
RXF 393 renal
  TGI: > 75 µM
SNB-19 CNS
  TGI: > 75 µM
K-562 leukemia
  TGI: > 75 µM
NCI-H522 lung
  TGI: > 75 µM
T-47D breast
  TGI: > 75 µM
LOX IMVI melanoma
  TGI: > 75 µM
SR leukemia
  TGI: > 75 µM
RPMI-8226 leukemia
  TGI: > 75 µM
PC-3 prostate
  TGI: > 75 µM
SN12C renal
  TGI: > 75 µM
UACC-62 melanoma
  TGI: > 75 µM
U251 CNS
  TGI: > 75 µM

## N#CC1(C#N)[C@@H]2CCC=C(Sc3ccccc3)[C@@H]21
SF-539 CNS
  TGI: 34.7 µM
MCF7 breast
  TGI: 23.4 µM
COLO 205 colon
  TGI: 32 µM
OVCAR-8 ovarian
  TGI: 31.2 µM
MDA-N
  TGI: 34.1 µM
CAKI-1 renal
  TGI: 27.2 µM
EKVX NSCLC
  TGI: 35.4 µM
SK-OV-3 ovarian
  TGI: 39.6 µM
SF-295 CNS
  TGI: 32.8 µM
HS 578T breast
  TGI: > 100 µM
MALME-3M melanoma
  TGI: 32 µM
ACHN renal
  TGI: 33.1 µM
MOLT-4 leukemia
  TGI: 85.9 µM
NCI-H226 lung
  TGI: 36.3 µM
OVCAR-5 ovarian
  TGI: 32 µM
HCT-116 colon
  TGI: 29.6 µM
BT-549 breast
  TGI: 44.4 µM
TK-10 renal
  TGI: 28.9 µM
HCT-15 colon
  TGI: 51.1 µM
A549 NSCLC
  TGI: 52.8 µM
M14 melanoma
  TGI: 26.5 µM
NCI-H460 lung
  TGI: 53.6 µM
HL-60(TB) leukemia
  TGI: 49.9 µM
KM12 colon
  TGI: 28.5 µM
NCI/ADR-RES ovarian
  TGI: 40.4 µM
SK-MEL-28 melanoma
  TGI: 28.9 µM
A498 renal
  TGI: > 100 µM
HOP-92 NSCLC
  TGI: 30.7 µM
SK-MEL-5 melanoma
  TGI: 29.4 µM
MDA-MB-231 breast
  TGI: 43.7 µM
SF-268 CNS
  TGI: 39 µM
SK-MEL-2 melanoma
  TGI: 28.3 µM
SW-620 colon
  TGI: 26 µM
HCC-2998 colon
  TGI: 32 µM
MDA-MB-435
  TGI: 26.8 µM
HT29 colon
  TGI: 34.8 µM
OVCAR-3 ovarian
  TGI: 31.1 µM
CCRF-CEM leukemia
  TGI: 63.1 µM
SNB-75 CNS
  TGI: 47.2 µM
786-0 renal
  TGI: 35.5 µM
IGROV1 ovarian
  TGI: 39.8 µM
OVCAR-4 ovarian
  TGI: 29 µM
UACC-257 melanoma
  TGI: 42.4 µM
DU-145 prostate
  TGI: 30.4 µM
RXF 393 renal
  TGI: 26.3 µM
SNB-19 CNS
  TGI: 97.9 µM
K-562 leukemia
  TGI: > 100 µM
NCI-H522 lung
  TGI: 24.5 µM
T-47D breast
  TGI: 52.4 µM
LOX IMVI melanoma
  TGI: 36.8 µM
SR leukemia
  TGI: > 100 µM
RPMI-8226 leukemia
  TGI: > 100 µM
PC-3 prostate
  TGI: 27.5 µM
SN12C renal
  TGI: 32.3 µM
UACC-62 melanoma
  TGI: 37.6 µM
U251 CNS
  TGI: 30.1 µM

## CC(=O)C1C(=O)C(C(C)=O)C2C3C=CC(C3)C12 (stereo not given)
SF-539 CNS
  TGI: > 100 µM
MCF7 breast
  TGI: > 100 µM
COLO 205 colon
  TGI: > 100 µM
OVCAR-8 ovarian
  TGI: > 100 µM
MDA-N
  TGI: > 100 µM
HOP-62 NSCLC
  TGI: > 100 µM
CAKI-1 renal
  TGI: > 100 µM
SK-OV-3 ovarian
  TGI: > 100 µM
SF-295 CNS
  TGI: > 100 µM
HS 578T breast
  TGI: > 100 µM
MALME-3M melanoma
  TGI: > 100 µM
ACHN renal
  TGI: > 100 µM
MOLT-4 leukemia
  TGI: > 100 µM
NCI-H226 lung
  TGI: > 100 µM
OVCAR-5 ovarian
  TGI: > 100 µM
HCT-116 colon
  TGI: > 100 µM
BT-549 breast
  TGI: > 100 µM
TK-10 renal
  TGI: > 100 µM
NCI-H23 lung
  TGI: > 100 µM
HCT-15 colon
  TGI: > 100 µM
A549 NSCLC
  TGI: > 100 µM
UO-31 renal
  TGI: > 100 µM
NCI-H460 lung
  TGI: > 100 µM
HL-60(TB) leukemia
  TGI: > 100 µM
KM12 colon
  TGI: > 100 µM
NCI/ADR-RES ovarian
  TGI: > 100 µM
SK-MEL-28 melanoma
  TGI: > 100 µM
A498 renal
  TGI: > 100 µM
HOP-92 NSCLC
  TGI: > 100 µM
SK-MEL-5 melanoma
  TGI: > 100 µM
MDA-MB-231 breast
  TGI: > 100 µM
SF-268 CNS
  TGI: > 100 µM
SK-MEL-2 melanoma
  TGI: > 100 µM
SW-620 colon
  TGI: > 100 µM
HCC-2998 colon
  TGI: > 100 µM
MDA-MB-435
  TGI: > 100 µM
HT29 colon
  TGI: > 100 µM
OVCAR-3 ovarian
  TGI: > 100 µM
CCRF-CEM leukemia
  TGI: > 100 µM
SNB-75 CNS
  TGI: > 100 µM
786-0 renal
  TGI: > 100 µM
IGROV1 ovarian
  TGI: > 100 µM
OVCAR-4 ovarian
  TGI: > 100 µM
UACC-257 melanoma
  TGI: > 100 µM
DU-145 prostate
  TGI: > 100 µM
RXF 393 renal
  TGI: > 100 µM
SNB-19 CNS
  TGI: > 100 µM
K-562 leukemia
  TGI: > 100 µM
NCI-H522 lung
  TGI: > 100 µM
T-47D breast
  TGI: > 100 µM
LOX IMVI melanoma
  TGI: > 100 µM
SR leukemia
  TGI: > 100 µM
RPMI-8226 leukemia
  TGI: > 100 µM
PC-3 prostate
  TGI: > 100 µM
SN12C renal
  TGI: > 100 µM
UACC-62 melanoma
  TGI: > 100 µM
U251 CNS
  TGI: > 100 µM

— PubChem BioAssay (NCI)
